Data set [1] is described as follows: Inhibition of vesperlysine-type advanced glycation end products formation using bovine serum albumin after 24 hrs by microtiter plate assay. The data set is classed as functional.
A short description of data set [2]: Inhibition of pentosidine-type advanced glycation end products formation using bovine serum albumin after 24 hrs by microtiter plate assay. The data set is classed as functional.
Data set [3] relates to HUVEC. As to the kind of experiment: Antiinflammatory activity in HUVEC assessed as inhibition of HLA-E expression at 10 uM after 1 hr by flow cytometry analysis. Conditions: Homo sapiens. The format is functional, cell-based. In general terms: A flow cytometer gives signals particle by particle.
Data set [4] deals with HUVEC. Put plainly: Induction of E-selectin expression in HUVEC after 1 hr by flow cytometry analysis. Conditions: human. The format is cell-based.
The subject of data set [5] is HUVEC. As to the kind of experiment: Antiinflammatory activity in HUVEC assessed as inhibition of IFNgamma-induced HLA-E expression at 10 uM after 1 hr by flow cytometry analysis. The format is functional. To be noted: Homo sapiens.
The test system of data set [6] is HUVEC. Put plainly: Antiinflammatory activity in HUVEC assessed as inhibition of IFNgamma-induced HLA-II expression at 10 uM after 1 hr by flow cytometry analysis. The format is functional. Conditions: Homo sapiens.
For data set [7], the system named is HUVEC. As to the kind of experiment: Induction of VCAM1 expression in HUVEC after 1 hr by ELISA. The format is cell-based. To be noted: human. On the technique in general: In an ELISA, binding on a coated surface is turned into a signal by an enzyme label.
Data set [8] deals with HUVEC. As to the kind of experiment: Antiinflammatory activity in HUVEC assessed as inhibition of HLA-I expression at 10 uM after 1 hr by flow cytometry analysis. The format is functional, cell-based. To be noted: Homo sapiens.
Data set [9] has as its system HUVEC. As to the kind of experiment: Induction of ICAM1 expression in HUVEC after 1 hr by flow cytometry analysis. Conditions: human. The data set is classed as cell-based.
The test system of data set [10] is HUVEC. As to the kind of experiment: Antiinflammatory activity in HUVEC assessed as inhibition of TNFalpha-induced ICAM1 expression at 10 uM after 1 hr by flow cytometry analysis. The format is functional. To be noted: Homo sapiens.
Data set [11] has as its system HUVEC. Put plainly: Cytotoxicity against TNFalpha-stimulated HUVEC at 10 uM after 6 hrs by MTT assay. The format is cell-based. To be noted: human. For orientation: Tetrazolium assays rely on reduction of a dye to a coloured formazan, in cell work by metabolically active cells.
Data set [12] has as its system HUVEC. Put plainly: Antiinflammatory activity in HUVEC assessed as inhibition of TNFalpha-induced VCAM1 expression after 1 hr by flow cytometry analysis. The data set is classed as functional, cell-based. To be noted: Homo sapiens.
Data set [13] concerns HUVEC. As to the kind of experiment: Antiinflammatory activity in HUVEC assessed as inhibition of TNFalpha-induced VCAM1 expression at 10 uM after 1 hr by flow cytometry analysis. The format is functional. Conditions: Homo sapiens.
Data set [14] relates to HUVEC. Put plainly: Antiinflammatory activity in HUVEC assessed as inhibition of MICA expression at 10 uM after 1 hr by flow cytometry analysis. The format is functional, cell-based. To be noted: Homo sapiens.
Data set [15] relates to HUVEC. Put plainly: Antiinflammatory activity in HUVEC assessed as inhibition of TNFalpha-induced E-selectin expression at 10 uM after 1 hr by flow cytometry analysis. The format is functional, cell-based. To be noted: Homo sapiens.

Consider two compounds from ChEMBL document CHEMBL3608262, “Lepidotol A from Mesua lepidota Inhibits Inflammatory and Immune Mediators in Human Endothelial Cells” (J Nat Prod, 2015).

The term IC50 denotes the concentration that inhibits the measured activity by half. Low values mean greater potency, high ones weaker potency. As usually defined, the inhibition is the change of the read-out against control, counted positive when it falls. The pIC50 is −log10 of the IC50, conventionally taken in molar units.

The structures appear in SMILES notation. pIC50: −log10 of the molar value. In brackets after ≈: the same amount, converted by molar mass. Activity calls are given as the source filed them. The calls are words filed in the database; no cut-off is given here.

For `N=C(N)NN` [PIMAGEDINE], the IC50 in data set [1] was determined as 700 mg/L (≈ 9.45 mM); in data set [2] it was 150 mg/L (≈ 2.02 mM).

For the compound `CC(C)=CCC1(CC=C(C)C)C(=O)c2c(-c3ccccc3)cc(=O)oc2C(C(=O)C(C)C)=C1O`, the inhibition result in the data set on HUVEC [3] and with HUVEC [14] was “Active” in each case. The Activity entry with HUVEC [4], with HUVEC [7], with HUVEC [9] and in the data set with HUVEC [11] was “Non-toxic” each time. For the same compound, the inhibition at 10 µM in the data set with HUVEC [5] is not above 95%; with HUVEC [6], not above 95%; with HUVEC [10] it was not above 23%; with HUVEC [13], not above 52%. Also, the inhibition entry in the data set with HUVEC [8] and in the data set on HUVEC [15] was “inactive” each time. In the data set on HUVEC [12], the negative-log IC50 (pIC50) is 4.99.
